Reference: patent US12090164B2, “Genotype-agnostic rescue of cystic fibrosis with small molecule bicarbonate channels” (The Board of Trustees of the University of Illinois, priority 2017, dated 2024)
“Also recorded” adds a separate entry of the source.

What was measured:
[1] = Na+, K+, Cl-, H+ efflux from liposomes; assay type: biochemical; conditions: 1:1000 AmB:lipid, vs DMSO vehicle
Description: Palmitoyl oleoyl phosphatidylcholine (POPC) was obtained as a 25 mg/mL solution in CHCl3 from Avanti Polar Lipids (Alabaster, AL) and was stored at −20° C. under an atmosphere of dry argon and used within 3 months. Cholesterol (Sigma Aldrich) was purified by recrystallization from ethanol. NaH^13CO3 was obtained as a white solid from Sigma Aldrich. Sodium, potassium, and chloride measurements were obtained using a Denver Instruments (Denver, CO) Model 225 pH meter equipped with the appropriate ion selective probe inside a Faraday cage. Sodium selective measurements were obtained using an Orion micro sodium electrode (Thermo 9811BN). Potassium selective measurements were obtained with an Orion Potassium Sure-Flow Combination Electrode with Waterproof BNC connector (Thermo 9719BNWP). Chloride selective measurements were obtained using an Orion combination chloride electrode (Thermo 9617BNWP). For sodium efflux experiments, measurements were made on 1.5 mL solutions that were magnetically stirred in 7 mL vials incubated at 23° C. […]
Prior to preparing a lipid film, this solution was warmed to ambient temperature to prevent condensation from contaminating the solution and degrading the lipid film. […] To obtain a sufficient quantity of large unilamellar vesicles (LUVs), at least two independent lipid film preparations were pooled together for the subsequent formation of LUVs. […]

[2] = test system: CuFi-1 epithelia; test: Transepithelial electrical resistance (Rt); assay type: cell-based, human; conditions: vehicle, 2 uM or 50 uM AmB, extended timeframes
Description: Small diameter CuFi-1 cultured epithelia were used for this experiment (0.33 cm^2) Cultured epithelia were treated with FC-72 vehicle, 2 and 50 μM AmB administered in perfluorocarbon (FC-72, Sigma) for 48 hours, 7 days, or 28 days. 200 μL of fresh USG media was placed on the apical side of the epithelia. Transepithelial electrical resistance (Rt) was then measured using a Millicell® ERS-2 Voltohmmeter across the apical and basolateral sides of the epithelia in a snaking pattern for two technical replicates per biological replicate.

[3] = test system: protein ion channel-deficient yeast; conditions: cited from earlier work

C[C@@H]1[C@H](O)[C@@H](C)/C=C/C=C/C=C/C=C/C=C/C=C/C=C/[C@H](O[C@@H]2O[C@H](C)[C@@H](O)[C@H](N)[C@@H]2O)C[C@@H]2O[C@](O)(C[C@@H](O)C[C@@H](O)[C@H](O)CC[C@@H](O)C[C@@H](O)CC(=O)O[C@H]1C)C[C@H](O)[C@H]2C(=O)O [AmB, amphotericin B]
transport of potassium, sodium, chloride, protons across a lipid membrane [1]: known to transport monovalent anions and cations; also recorded: can transport potassium, sodium, chloride, protons and HCO3^− | membrane integrity / transepithelial electrical resistance (Rt) [2]: did not disrupt membrane integrity; also recorded: no difference in transepithelial electrical resistance; also recorded: did not differ between treatment with vehicle or increasing doses of AmB | range of doses for which yeast growth rescue is observed ([3]; AmB pre-complexed with ergosterol): extended by more than an order of magnitude | yeast growth rescue [3]: can restore growth in protein ion channel-deficient yeast; also recorded: restores potassium transport and thus growth in yeast missing the potassium-selective Trk transporters
